Experiment: xn = mol fraction of the nth substance listed

COCCO + CC(C)CO
Settings | viscosity [mPa·s]
303.15 K, 101.3 kPa, x1 = 0.0962 | 2.478
303.15 K, 101.3 kPa, x1 = 0.2087 | 2.104
303.15 K, 101.3 kPa, x1 = 0.328 | 1.823
303.15 K, 101.3 kPa, x1 = 0.433 | 1.653
303.15 K, 101.3 kPa, x1 = 0.5976 | 1.493
303.15 K, 101.3 kPa, x1 = 0.6411 | 1.468
303.15 K, 101.3 kPa, x1 = 0.7261 | 1.431
303.15 K, 101.3 kPa, x1 = 0.8566 | 1.398
303.15 K, 101.3 kPa, x1 = 0.9229 | 1.391
308.15 K, 101.33 kPa, x1 = 0.1438 | 1.902
308.15 K, 101.33 kPa, x1 = 0.2792 | 1.664
308.15 K, 101.33 kPa, x1 = 0.3329 | 1.595
308.15 K, 101.33 kPa, x1 = 0.505 | 1.422
308.15 K, 101.33 kPa, x1 = 0.6648 | 1.32
308.15 K, 101.33 kPa, x1 = 0.7249 | 1.292
308.15 K, 101.33 kPa, x1 = 0.7936 | 1.264
308.15 K, 101.33 kPa, x1 = 0.8977 | 1.231

CCCCBr + ClC(Cl)(Cl)Cl
101 kPa
Settings | viscosity [mPa·s]
295.95 K, x1 = 0.0935 | 0.874
295.95 K, x1 = 0.1213 | 0.8589
295.95 K, x1 = 0.171 | 0.8365
295.95 K, x1 = 0.2166 | 0.8163
295.95 K, x1 = 0.3376 | 0.7686
295.95 K, x1 = 0.5094 | 0.7155
295.95 K, x1 = 0.6766 | 0.6738
303.45 K, x1 = 0.0948 | 0.7853
303.45 K, x1 = 0.1316 | 0.7681
303.45 K, x1 = 0.1914 | 0.7427
303.45 K, x1 = 0.3229 | 0.698
303.45 K, x1 = 0.4875 | 0.6544
303.45 K, x1 = 0.7961 | 0.5884
313.25 K, x1 = 0.127 | 0.6844
313.25 K, x1 = 0.2061 | 0.6557
313.25 K, x1 = 0.2967 | 0.6297
313.25 K, x1 = 0.4576 | 0.5922
313.25 K, x1 = 0.6279 | 0.5598
313.25 K, x1 = 0.761 | 0.5382
313.25 K, x1 = 0.7961 | 0.5329

CCCCCCCCCCCCOS(=O)(=O)[O-].[Na+] + O
101.33 kPa
Settings | viscosity [mPa·s]
303.15 K, x1 = 0.000252 | 0.8085
308.15 K, x1 = 0.000324 | 0.7345
308.15 K, x1 = 0.000432 | 0.7465
313.15 K, x1 = 7.2e-05 | 0.6585

COCCO + COC(=O)OC
298.15 K, 101.33 kPa
Settings | viscosity [mPa·s]
x1 = 0.0114 | 0.593
x1 = 0.0258 | 0.594
x1 = 0.0442 | 0.598
x1 = 0.0637 | 0.6
x1 = 0.0769 | 0.603
x1 = 0.0975 | 0.608
x1 = 0.1462 | 0.624
x1 = 0.2295 | 0.658
x1 = 0.2503 | 0.669
x1 = 0.2778 | 0.681
x1 = 0.3223 | 0.704
x1 = 0.34 | 0.713
x1 = 0.4034 | 0.758
x1 = 0.4719 | 0.81
x1 = 0.5173 | 0.848
x1 = 0.5482 | 0.874
x1 = 0.5889 | 0.91
x1 = 0.6404 | 0.96
x1 = 0.7382 | 1.075
x1 = 0.814 | 1.12
x1 = 0.8597 | 1.252
x1 = 0.89 | 1.305
x1 = 0.9189 | 1.355
x1 = 0.9738 | 1.471
x2 = 0.0109 | 1.516

C[N+](C)(C)C[C@H](O)CC(=O)[O-] + O=C1O[C@H]([C@@H](O)CO)C(O)=C1O
Settings | viscosity [mPa·s]
298.15 K, 101.33 kPa, x2 = 0.7 | 423.5

CCCCNCCCC + CCCCCCCO
viscosity [mPa·s], 101.33 kPa
Settings | x1 = 0.0975 | x1 = 0.197 | x1 = 0.2901 | x1 = 0.3789 | x1 = 0.4808 | x1 = 0.5861 | x1 = 0.685 | x1 = 0.7862 | x1 = 0.8807
303.15 K | 4.226 | 3.629 | 3.099 | 2.63 | 2.15 | 1.741 | 1.432 | 1.171 | 0.9696
313.15 K | 3.151 | 2.716 | 2.337 | 2.013 | 1.685 | 1.393 | 1.169 | 0.9814 | 0.8316

CCCCNCCCC + CCCCCCCCO
viscosity [mPa·s], 101.33 kPa
Settings | x1 = 0.0912 | x1 = 0.1863 | x1 = 0.2846 | x1 = 0.3857 | x1 = 0.4878 | x1 = 0.5882 | x1 = 0.6862 | x1 = 0.7892 | x1 = 0.8929
303.15 K | 5.37 | 4.588 | 3.829 | 3.105 | 2.481 | 1.979 | 1.581 | 1.251 | 0.9852
313.15 K | 3.865 | 3.336 | 2.812 | 2.336 | 1.921 | 1.569 | 1.277 | 1.026 | 0.827
